Results reported in EP0810207A1, “Bis-ortho-substituted benzoylguanidines, process for their preparation, their use as medicament or diagnostic agent and medicaments containing them” (HOECHST AKTIENGESELLSCHAFT, priority 1996, dated 1997).
Counter-ions that a name gives are not always drawn.

Biological target: T1, Na^+/H^+-Exchangers von Kaninchenerythrocyten (Oryctolagus cuniculus, UniProt P23791)
T1 construct: den Na^+-Influx in die Erythrocyten via Na^+/H^+-Austausch flammenphotometrisch bestimmen zu können; from tissue; host or cells: Erythrocytes from ear-artery blood of cholesterol-fed New Zealand White rabbits
Experiment: Inhibition of the Na+/H+ exchanger of rabbit erythrocytes (amiloride-sensitive sodium influx, flame photometry)
Type: cell-based, Kaninchen
Details: hyperosmolar salt-sucrose medium, pH 7,4, 37°C, read-out: IC50 Inhibition des Na^+/H^+-Exchangers
From the text: Inhibition des Na^+/H^+-Exchangers von Kaninchenerythrocyten Weiße Neuseeland-Kaninchen (Ivanovas) erhielten eine Standard-Diät mit 2% Cholesterin für sechs Wochen, um den Na^+/H^+-Austausch zu aktivieren und so den Na^+-Influx in die Erythrocyten via Na^+/H^+-Austausch flammenphotometrisch bestimmen zu können. Das Blut wurde den Ohrarterien entnommen und durch 25 IE Kalium-Heparin ungerinnbar gemacht. Ein Teil jeder Probe wurde zur Doppelbestimmung des Hämatokrits durch Zentrifugieren benutzt. Aliquots von jeweils 100 µl dienten zur Messung des Na^+-Ausgangsgehalts der Erythrocyten.
Um den Amilorid-sensitiven Natrium-Influx zu bestimmen, wurden 100 µl jeder Blutprobe in jeweils 5 ml eines hyperosmolaren Salz-Sucrose-Mediums (mmol/l: 140 NaCl, 3 KCl, 150 Sucrose, 0,1 Ouabain, 20 Tris-hydroxymethylaminomethan) bei pH 7,4 und 37°C inkubiert. Die Erythrocyten wurden danach dreimal mit eiskalter MgCl2-Ouabain-Lösung (mmol/l: 112 MgCl2, 0,1 Ouabain) gewaschen und in 2,0 ml destilliertem Wasser hämolysiert. Der intrazelluläre Natriumgehalt wurde flammenphotometrisch bestimmt.
Der Na^+-Nettoinflux wurde aus der Differenz zwischen Natrium-Ausgangswerten und dem Natriumgehalt der Erythrocyten nach Inkubation errechnet. Der Amilorid-hemmbare Natrium-Influx ergab sich aus der Differenz des Natriumgehalts der Erythrocyten nach Inkubation mit und ohne Amilorid 3 x 10^-4 mol/l. Auf diese Weise wurde auch bei den erfindungsgemäßen Verbindungen verfahren.

T1 sequence (P23791 whole entry): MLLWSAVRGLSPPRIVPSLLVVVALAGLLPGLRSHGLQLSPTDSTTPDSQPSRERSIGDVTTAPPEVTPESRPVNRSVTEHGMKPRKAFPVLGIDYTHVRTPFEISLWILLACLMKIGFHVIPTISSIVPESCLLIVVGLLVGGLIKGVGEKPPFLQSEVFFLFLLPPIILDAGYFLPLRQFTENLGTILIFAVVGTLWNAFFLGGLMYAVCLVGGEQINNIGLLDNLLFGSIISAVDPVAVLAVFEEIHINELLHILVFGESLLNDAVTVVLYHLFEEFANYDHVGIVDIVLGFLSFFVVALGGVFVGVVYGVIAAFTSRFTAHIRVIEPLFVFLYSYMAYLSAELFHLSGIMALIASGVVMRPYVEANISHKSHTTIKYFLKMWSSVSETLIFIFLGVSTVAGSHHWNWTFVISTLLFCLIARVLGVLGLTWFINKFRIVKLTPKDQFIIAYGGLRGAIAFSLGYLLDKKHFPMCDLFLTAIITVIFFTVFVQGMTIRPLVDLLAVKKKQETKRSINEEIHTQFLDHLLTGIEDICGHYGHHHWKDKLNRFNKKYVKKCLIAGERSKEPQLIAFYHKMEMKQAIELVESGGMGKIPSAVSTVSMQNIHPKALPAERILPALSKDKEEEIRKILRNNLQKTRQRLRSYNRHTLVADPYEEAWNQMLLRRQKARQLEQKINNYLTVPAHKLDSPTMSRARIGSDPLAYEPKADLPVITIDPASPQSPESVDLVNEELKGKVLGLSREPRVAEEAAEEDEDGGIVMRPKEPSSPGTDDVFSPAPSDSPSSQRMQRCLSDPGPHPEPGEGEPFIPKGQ

IC50 | Compound
10 µM | NC(N)=NC(=O)c1c(F)cccc1C(F)(F)F [Beispiel 5, 2-Fluor-6-trifluormethyl-benzoylguanidin-hydrochlorid]
> 10 µM | NC(N)=NC(=O)c1c(F)cccc1F [Beispiel 4, 2,6-Difluor-benzoylguanidin-hydrochlorid]

Continued, compound first:

Compound | IC50
COc1ccc(Cl)c(OC)c1C(=O)N=C(N)N [Beispiel 2, 3-Chlor-2,6-dimethoxy-benzoylguanidin-hydrochlorid] | 8.5 µM
NC(N)=NC(=O)c1c(F)c(F)c(O)c(F)c1F [Beispiel 3, 4-Hydroxy-2,3,5,6-tetrafluor-benzoylguanidin-hydrochlorid] | 0.3 µM
COc1ccc(C(F)(F)F)c(OC)c1C(=O)N=C(N)N [Beispiel 6, 3-Trifluormethyl-2,6-dimethoxy-benzoylguanidin-hydrochlorid] | > 10 µM
N=C(N)NC(=O)c1c(Cl)cccc1Cl [Beispiel 1, 2,6-Dichlor-benzoylguanidin-hydrochlorid] | 10 µM
